In US20260242419A1, “A CYCLIC PEPTIDE FOR TRAPPING INTERLEUKIN-1 BETA” (Merck Sharp & Dohme LLC, priority 2023, published 2026):
Non-standard residues stand in square brackets, D forms with d. Residues, ends and D or L forms follow the SMILES beside them. Phe(4-(5-CO2H-2-pyrimidyl)) = N[C@@H](Cc1ccc(-c2ncc(C(=O)O)cn2)cc1)C(=O)O; Phe(4-(4-Ac-piperazinyl)) = CC(=O)N1CCN(c2ccc(C[C@H](N)C(=O)O)cc2)CC1; dPro(4R-(4-pyridylmethyl)) = O=C(O)[C@H]1C[C@@H](Cc2ccncc2)CN1; Trp(βS-Me,4-F) = C[C@@H](c1c[nH]c2cccc(F)c12)[C@H](N)C(=O)O; Bip(4'-COOH) = N[C@@H](Cc1ccc(-c2ccc(C(=O)O)cc2)cc1)C(=O)O; Ala(1-bicyclo(1.1.1)pentyl) = N[C@@H](CC12CC(C1)C2)C(=O)O; dPro(4R-Bzl(4-F)) = O=C(O)[C@H]1C[C@@H](Cc2ccc(F)cc2)CN1; Ala(pyrimidin-5-yl) = N[C@@H](Cc1cncnc1)C(=O)O; Phe(4-COOH) = N[C@@H](Cc1ccc(C(=O)O)cc1)C(=O)O; Pro(cis-4-F) = O=C(O)[C@@H]1C[C@H](F)CN1; Ala(4-THP) = N[C@@H](CC1CCOCC1)C(=O)O; cisHyp = O=C(O)[C@@H]1C[C@H](O)CN1; 4Pal = N[C@@H](Cc1ccncc1)C(=O)O; αMeD = C[C@](N)(CC(=O)O)C(=O)O; d(αMeS) = C[C@@](N)(CO)C(=O)O; Dab = NCC[C@H](N)C(=O)O; Aib = CC(C)(N)C(=O)O

biological target: T1, IL-1β (Homo sapiens, UniProt P01584); experiment: IL-6 assay in MRC5 cells: inhibition of IL-1β induced IL-6 secretion (AlphaLISA); type: cell-based; conditions: inhibition of IL-1β induced IL-6 secretion in MRC5 cells; read-out: MRC5 IC50
T1 construct: purchased BioLegend 579404
Method in brief: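 Compound was pre-incubated 1 h at ambient temperature with recombinant human IL-1β at 2λ EC80 before adding human lung fibroblast MRC5 cells (3000/well) in EMEM with 0.025% BSA. After overnight culture at 37 °C, 5% CO2, secreted IL-6 in conditioned medium was measured by AlphaLISA; IC50 from 4-parameter logistic fits.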

T1 sequence (P01584 117-269): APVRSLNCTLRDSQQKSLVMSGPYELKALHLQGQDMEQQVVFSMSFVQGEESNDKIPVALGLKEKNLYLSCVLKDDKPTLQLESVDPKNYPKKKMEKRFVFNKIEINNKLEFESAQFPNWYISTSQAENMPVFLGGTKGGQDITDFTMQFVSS

Row | IC50 | Structure (SMILES)
1 | 15 pM | C[C@@H](c1c[nH]c2cccc(F)c12)[C@@H]1NC(=O)[C@@H]2C[C@H](F)CN2C(=O)CNC(=O)[C@H](Cc2ccc(C(=O)O)cc2)NC(=O)[C@H](Cc2ccncc2)NC(=O)[C@H](Cc2ccc(-c3ncc(C(=O)O)cn3)cc2)NC(=O)[C@H]2C[C@@H](Cc3ccncc3)CN2C(=O)CNC(=O)[C@H](CCN)NC(=O)[C@H](CCC(N)=O)NC(=O)[C@H](Cc2cncnc2)NC(=O)C(C)(C)NC(=O)[C@H](Cc2c[nH]c3ccccc23)NC(=O)[C@H](CO)NC(=O)C(C)(C)NC1=O [Example 186] (cyclo([Phe(4-(5-CO2H-2-pyrimidyl))][4Pal][Phe(4-COOH)]G[Pro(cis-4-F)][Trp(βS-Me,4-F)][Aib]SW[Aib][Ala(pyrimidin-5-yl)]Q[Dab]G[dPro(4R-(4-pyridylmethyl))]))
2 | 15 pM | C[C@@H](c1c[nH]c2cccc(F)c12)[C@@H]1NC(=O)[C@@H]2C[C@H](F)CN2C(=O)CNC(=O)[C@H](Cc2ccc(C(=O)O)cc2)NC(=O)[C@H](Cc2ccncc2)NC(=O)[C@H](Cc2ccc(-c3ncc(C(=O)O)cn3)cc2)NC(=O)[C@H]2C[C@@H](Cc3ccncc3)CN2C(=O)CNC(=O)[C@H](CCN)NC(=O)[C@H](CCC(N)=O)NC(=O)[C@H](Cc2cncnc2)NC(=O)[C@](C)(CC(=O)O)NC(=O)[C@H](Cc2c[nH]c3ccccc23)NC(=O)[C@H](CO)NC(=O)C(C)(C)NC1=O [Example 187] (cyclo([Phe(4-(5-CO2H-2-pyrimidyl))][4Pal][Phe(4-COOH)]G[Pro(cis-4-F)][Trp(βS-Me,4-F)][Aib]SW[αMeD][Ala(pyrimidin-5-yl)]Q[Dab]G[dPro(4R-(4-pyridylmethyl))]))
3 | 20 pM | C[C@@H](c1c[nH]c2cccc(F)c12)[C@@H]1NC(=O)[C@@H]2C[C@H](F)CN2C(=O)CNC(=O)[C@H](Cc2ccc(C(=O)O)cc2)NC(=O)[C@H](CC23CC(C2)C3)NC(=O)[C@H](Cc2ccc(-c3ncc(C(=O)O)cn3)cc2)NC(=O)[C@H]2C[C@@H](Cc3ccncc3)CN2C(=O)CNC(=O)[C@H](CCN)NC(=O)[C@H](CCC(N)=O)NC(=O)[C@H](Cc2cncnc2)NC(=O)[C@](C)(CC(=O)O)NC(=O)[C@H](Cc2c[nH]c3ccccc23)NC(=O)[C@H](CO)NC(=O)C(C)(C)NC1=O [Example 188] (cyclo([Phe(4-(5-CO2H-2-pyrimidyl))][Ala(1-bicyclo(1.1.1)pentyl)][Phe(4-COOH)]G[Pro(cis-4-F)][Trp(βS-Me,4-F)][Aib]SW[αMeD][Ala(pyrimidin-5-yl)]Q[Dab]G[dPro(4R-(4-pyridylmethyl))]))
4 | 16 pM | C[C@@H](c1c[nH]c2cccc(F)c12)[C@@H]1NC(=O)[C@@H]2C[C@H](F)CN2C(=O)CNC(=O)[C@H](Cc2ccc(C(=O)O)cc2)NC(=O)[C@H](Cc2ccncc2)NC(=O)[C@H](Cc2ccc(-c3ccc(C(=O)O)cc3)cc2)NC(=O)[C@H]2C[C@@H](Cc3ccncc3)CN2C(=O)CNC(=O)[C@H](CO)NC(=O)[C@H](CCC(N)=O)NC(=O)[C@H](CC2CCOCC2)NC(=O)[C@](C)(CC(=O)O)NC(=O)[C@H](Cc2c[nH]c3ccccc23)NC(=O)[C@H](CO)NC(=O)C(C)(C)NC1=O [Example 189] (cyclo([Bip(4'-COOH)][4Pal][Phe(4-COOH)]G[Pro(cis-4-F)][Trp(βS-Me,4-F)][Aib]SW[αMeD][Ala(4-THP)]QSG[dPro(4R-(4-pyridylmethyl))]))
5 | 19 pM | C[C@@H](c1c[nH]c2cccc(F)c12)[C@@H]1NC(=O)[C@@H]2C[C@H](O)CN2C(=O)CNC(=O)[C@H](Cc2ccc(C(=O)O)cc2)NC(=O)[C@H](CC23CC(C2)C3)NC(=O)[C@H](Cc2ccc(-c3ccc(C(=O)O)cc3)cc2)NC(=O)[C@H]2C[C@@H](Cc3ccncc3)CN2C(=O)CNC(=O)[C@H](CCN)NC(=O)[C@H](CCC(N)=O)NC(=O)[C@H](Cc2cncnc2)NC(=O)[C@@](C)(CO)NC(=O)[C@H](Cc2c[nH]c3ccccc23)NC(=O)[C@H](CO)NC(=O)C(C)(C)NC1=O [Example 190] (cyclo([Bip(4'-COOH)][Ala(1-bicyclo(1.1.1)pentyl)][Phe(4-COOH)]G[cisHyp][Trp(βS-Me,4-F)][Aib]SW[d(αMeS)][Ala(pyrimidin-5-yl)]Q[Dab]G[dPro(4R-(4-pyridylmethyl))]))
6 | 21 pM | C[C@@H](c1c[nH]c2cccc(F)c12)[C@@H]1NC(=O)[C@@H]2C[C@H](O)CN2C(=O)CNC(=O)[C@H](Cc2ccc(C(=O)O)cc2)NC(=O)[C@H](CC23CC(C2)C3)NC(=O)[C@H](Cc2ccc(-c3ccc(C(=O)O)cc3)cc2)NC(=O)[C@H]2C[C@@H](Cc3ccncc3)CN2C(=O)CNC(=O)[C@H](CCN)NC(=O)[C@H](CCC(N)=O)NC(=O)[C@H](CC2CCOCC2)NC(=O)[C@](C)(CC(=O)O)NC(=O)[C@H](Cc2c[nH]c3ccccc23)NC(=O)[C@H](CO)NC(=O)C(C)(C)NC1=O [Example 191] (cyclo([Bip(4'-COOH)][Ala(1-bicyclo(1.1.1)pentyl)][Phe(4-COOH)]G[cisHyp][Trp(βS-Me,4-F)][Aib]SW[αMeD][Ala(4-THP)]Q[Dab]G[dPro(4R-(4-pyridylmethyl))]))
7 | 21 pM | C[C@@H](c1c[nH]c2cccc(F)c12)[C@@H]1NC(=O)[C@@H]2C[C@H](O)CN2C(=O)CNC(=O)[C@H](Cc2ccc(C(=O)O)cc2)NC(=O)[C@H](CC23CC(C2)C3)NC(=O)[C@H](Cc2ccc(-c3ccc(C(=O)O)cc3)cc2)NC(=O)[C@H]2C[C@@H](Cc3ccncc3)CN2C(=O)CNC(=O)[C@H](CCN)NC(=O)[C@H](CCC(N)=O)NC(=O)[C@H](CC2CCOCC2)NC(=O)[C@@](C)(CO)NC(=O)[C@H](Cc2c[nH]c3ccccc23)NC(=O)[C@H](CO)NC(=O)C(C)(C)NC1=O [Example 192] (cyclo([Bip(4'-COOH)][Ala(1-bicyclo(1.1.1)pentyl)][Phe(4-COOH)]G[cisHyp][Trp(βS-Me,4-F)][Aib]SW[d(αMeS)][Ala(4-THP)]Q[Dab]G[dPro(4R-(4-pyridylmethyl))]))
8 | 11 pM | C[C@@H](c1c[nH]c2cccc(F)c12)[C@@H]1NC(=O)[C@@H]2C[C@H](F)CN2C(=O)CNC(=O)[C@H](Cc2ccc(C(=O)O)cc2)NC(=O)[C@H](CC23CC(C2)C3)NC(=O)[C@H](Cc2ccc(-c3ccc(C(=O)O)cc3)cc2)NC(=O)[C@H]2C[C@@H](Cc3ccncc3)CN2C(=O)CNC(=O)[C@H](CCN)NC(=O)[C@H](CCC(N)=O)NC(=O)[C@H](CC2CCOCC2)NC(=O)[C@](C)(CC(=O)O)NC(=O)[C@H](Cc2c[nH]c3ccccc23)NC(=O)[C@H](CO)NC(=O)C(C)(C)NC1=O [Example 193] (cyclo([Bip(4'-COOH)][Ala(1-bicyclo(1.1.1)pentyl)][Phe(4-COOH)]G[Pro(cis-4-F)][Trp(βS-Me,4-F)][Aib]SW[αMeD][Ala(4-THP)]Q[Dab]G[dPro(4R-(4-pyridylmethyl))]))
9 | 14 pM | C[C@@H](c1c[nH]c2cccc(F)c12)[C@@H]1NC(=O)[C@@H]2C[C@H](O)CN2C(=O)CNC(=O)[C@H](Cc2ccc(C(=O)O)cc2)NC(=O)[C@H](Cc2ccncc2)NC(=O)[C@H](Cc2ccc(-c3ccc(C(=O)O)cc3)cc2)NC(=O)[C@H]2C[C@@H](Cc3ccncc3)CN2C(=O)CNC(=O)[C@H](CCN)NC(=O)[C@H](CCC(N)=O)NC(=O)[C@H](Cc2cncnc2)NC(=O)C(C)(C)NC(=O)[C@H](Cc2c[nH]c3ccccc23)NC(=O)[C@H](CO)NC(=O)C(C)(C)NC1=O [Example 194] (cyclo([Bip(4'-COOH)][4Pal][Phe(4-COOH)]G[cisHyp][Trp(βS-Me,4-F)][Aib]SW[Aib][Ala(pyrimidin-5-yl)]Q[Dab]G[dPro(4R-(4-pyridylmethyl))]))
10 | 13 pM | C[C@@H](c1c[nH]c2cccc(F)c12)[C@@H]1NC(=O)[C@@H]2C[C@H](O)CN2C(=O)CNC(=O)[C@H](Cc2ccc(C(=O)O)cc2)NC(=O)[C@H](Cc2ccncc2)NC(=O)[C@H](Cc2ccc(-c3ccc(C(=O)O)cc3)cc2)NC(=O)[C@H]2C[C@@H](Cc3ccncc3)CN2C(=O)CNC(=O)[C@H](CCN)NC(=O)[C@H](CCC(N)=O)NC(=O)[C@H](Cc2cncnc2)NC(=O)[C@@](C)(CO)NC(=O)[C@H](Cc2c[nH]c3ccccc23)NC(=O)[C@H](CO)NC(=O)C(C)(C)NC1=O [Example 195] (cyclo([Bip(4'-COOH)][4Pal][Phe(4-COOH)]G[cisHyp][Trp(βS-Me,4-F)][Aib]SW[d(αMeS)][Ala(pyrimidin-5-yl)]Q[Dab]G[dPro(4R-(4-pyridylmethyl))]))
11 | 38 pM | CC(=O)N1CCN(c2ccc(C[C@@H]3NC(=O)[C@H]4C[C@@H](Cc5ccc(F)cc5)CN4C(=O)CNC(=O)[C@H](CCN)NC(=O)[C@H](CCC(N)=O)NC(=O)[C@H](Cc4cncnc4)NC(=O)C(C)(C)NC(=O)[C@H](Cc4c[nH]c5ccccc45)NC(=O)[C@H](CO)NC(=O)C(C)(C)NC(=O)[C@H]([C@@H](C)c4c[nH]c5cccc(F)c45)NC(=O)[C@@H]4C[C@H](O)CN4C(=O)CNC(=O)[C@H](Cc4ccc(C(=O)O)cc4)NC(=O)[C@H](Cc4ccncc4)NC3=O)cc2)CC1 [Example 196] (cyclo([Phe(4-(4-Ac-piperazinyl))][4Pal][Phe(4-COOH)]G[cisHyp][Trp(βS-Me,4-F)][Aib]SW[Aib][Ala(pyrimidin-5-yl)]Q[Dab]G[dPro(4R-Bzl(4-F))]))
12 | 36 pM | C[C@@H](c1c[nH]c2cccc(F)c12)[C@@H]1NC(=O)[C@@H]2C[C@H](O)CN2C(=O)CNC(=O)[C@H](Cc2ccc(C(=O)O)cc2)NC(=O)[C@H](Cc2ccncc2)NC(=O)[C@H](Cc2ccc(-c3ncc(C(=O)O)cn3)cc2)NC(=O)[C@H]2C[C@@H](Cc3ccncc3)CN2C(=O)CNC(=O)[C@H](CCN)NC(=O)[C@H](CCC(N)=O)NC(=O)[C@H](Cc2cncnc2)NC(=O)C(C)(C)NC(=O)[C@H](Cc2c[nH]c3ccccc23)NC(=O)[C@H](CO)NC(=O)C(C)(C)NC1=O [Example 197] (cyclo([Phe(4-(5-CO2H-2-pyrimidyl))][4Pal][Phe(4-COOH)]G[cisHyp][Trp(βS-Me,4-F)][Aib]SW[Aib][Ala(pyrimidin-5-yl)]Q[Dab]G[dPro(4R-(4-pyridylmethyl))]))
